Test results reported in patent US20230225999A1, “A NUTRITIONAL COMPOSITION COMPRISING 3-HYDROXYBUTYRIC ACID TO IMPROVE THE GASTROINTESTINAL BARRIER” (priority 2020, published 2023).

Tested on: co-culture cell-line model of intestinal epithelial cells containing Caco-2 and HT29-MTX cells
Assay: Direct effect of 3-hydroxybutyric acid on inflammation-induced epithelial barrier dysfunction (FD4 translocation)
Assay type: cell-based, human
Settings: 10 μM apical, 36 hours pre-treatment, then TNF-α (2.5 ng/ml) and IFN-γ (10 ng/ml) for 48 hours
Procedure: The human Caco-2 and HT29-MTX cell lines were obtained from the American Type Culture Collection (ATCC) and the European Collection of Authenticated Cell Cultures (ECACC), respectively. Caco-2 cell and HT29-MTX were maintained separately in culture flasks at 37° C. under humidified 10% CO2 atmosphere in Dulbecco's […] (DMEM) supplemented with GlutaMAX (Invitrogen), 1% […], 100 μg/ml streptomycin, 100 UI/ml penicillin and heat inactivated fetal bovine serum (FBS; 15% for Caco-2 and 10% for HT29-MTX). To make co-culture for epithelial barrier studies, each cell lines were expanded in their respective flasks until 90% confluent monolayers were reached. Cell lines are then trypsinized with 1× trypsin. Co-culture of Caco-2 and HT29-MTX were seeded at 6×10^4/cm^2 on 1.12 cm^2 Transwell Polycarbonate semi-permeable membranes (0.4 μm) and grown in DMEM supplemented with GlutaMAX, 1% minimum essential media, 100 μg/ml streptomycin, 100 UI/ml penicillin and 10% heat inactivated FBS for 21 days. […] At the end of the experiment, translocation of the FITC-labeled dextran (4000 Da) from the apical to basolateral compartment was quantified within a 2-hour period. FD4 translocation data were analysed by using the two-sided two-sample Student t-test assuming unequal variances.

SMILES: CC(O)CC(=O)O (stereo not shown) [3-hydroxybutyric acid]
- Epithelial barrier intactness: translocation of FITC-labeled dextran (FD4) from apical to basolateral compartment relative to control +ve (FIG. 6): protect the barrier against inflammation-induced epithelial barrier hyperpermeability
